Laboratory results reported in the supplement of paper PMC10307832.

Tests used:
Assay in all cases: relative viability (nuclei count vs DMSO), 5 days (fraction); higher = more cells survive
[1] = compound: CC(C)=CC[C@@H](O)C1=CC(=O)c2c(O)ccc(O)c2C1=O [Shikonin] + O=C(c1cc(Cc2n[nH]c(=O)c3ccccc23)ccc1F)N1CCN(C(=O)C2CC2)CC1 [Olaparib] (partner 8 µM)
Outline: (§1)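 A single step with final 0.05% Triton X-100, 1% formaldehyde and 1 ug/ml Hoechst fixed the cells and stained nuclei 5 days after treatment. Lung cancer cell lines in 1536-well plates had been treated by pin tool the day after seeding with one drug alone or a fixed anchor-drug dose plus five library-drug doses (not always all listed) in √10 steps, and nuclei were counted on 4× images. Relative viability is the ratio of nuclei in treated wells to nuclei in vehicle wells, taken as the median of duplicate plates.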

[2] = compound: CC(C)=CC[C@@H](O)C1=CC(=O)c2c(O)ccc(O)c2C1=O [Shikonin] + Nc1nc2[nH]cc(CCc3ccc(C(=O)N[C@@H](CCC(=O)O)C(=O)O)cc3)c2c(=O)[nH]1 [Pemetrexed] (partner 0.2 µM)
Outline: as §1

[3] = compound: CC(C)N(CCCNC(=O)Nc1ccc(C(C)(C)C)cc1)C[C@H]1O[C@@H](n2ccc3c(N)ncnc32)[C@H](O)[C@@H]1O + O=C(CCCCCCC(=O)Nc1ccccc1)NO [Vorinostat] (partner 1 µM)
Outline: as §1

[4] = compound: CC(C)N(CCCNC(=O)Nc1ccc(C(C)(C)C)cc1)C[C@H]1O[C@@H](n2ccc3c(N)ncnc32)[C@H](O)[C@@H]1O + CS(=O)(=O)N1CCN(Cc2cc3nc(-c4cccc5[nH]ncc45)nc(N4CCOCC4)c3s2)CC1 [Pictilisib] (partner 1 µM)
Outline: as §1

Cell Line	relative viability ([1]; first compound 0.01 µM)	relative viability ([1]; first compound 0.1 µM)	relative viability ([1]; first compound 0.3162 µM)	relative viability ([1]; first compound 1 µM)	relative viability ([2]; first compound 0.01 µM)	relative viability ([2]; first compound 0.1 µM)	relative viability ([2]; first compound 0.3162 µM)	relative viability ([2]; first compound 1 µM)	relative viability ([3]; first compound 0.08 µM)	relative viability ([3]; first compound 0.253 µM)	relative viability ([3]; first compound 2.53 µM)	relative viability ([3]; first compound 8 µM)	relative viability ([4]; first compound 0.08 µM)	relative viability ([4]; first compound 0.253 µM)	relative viability ([4]; first compound 0.8 µM)	relative viability ([4]; first compound 2.53 µM)	relative viability ([4]; first compound 8 µM)	relative viability ([3]; first compound 0.8 µM)
201T	0.843	0.893	0.869	0.951	0.346	0.382	0.368	0.307	0.984	0.975	0.911	0.931	0.652	0.624	0.571	0.722	0.733	–
A549	0.351	0.454	0.305	0.302	–	–	–	–	–	–	–	–	0.513	0.501	0.53	0.52	0.469	–
A-427	0.802	0.872	0.708	0.795	1.02	1.04	1.01	1.24	0.839	0.912	0.901	0.9	0.775	0.644	0.812	0.597	0.77	0.875
ABC-1	0.78	0.894	0.948	0.637	–	–	–	–	1.19	1.29	1.07	0.919	0.623	0.71	–	0.828	0.701	–
BEN	1.08	1.03	1.02	1.01	0.765	0.856	0.78	0.87	0.597	0.539	0.606	0.572	0.606	0.497	0.586	0.588	0.586	0.576
CAL-12T	0.767	0.849	0.789	0.639	1.28	1.41	1.09	1.24	0.788	0.76	0.644	0.578	0.316	0.388	0.398	0.459	0.47	0.965
COR-L23	0.401	0.306	0.307	0.24	0.188	0.19	0.208	0.206	0.378	0.431	0.5	0.374	0.678	0.606	0.662	0.778	0.735	0.462
COR-L 105	0.672	0.796	0.558	0.606	1.1	1.09	1.05	1.02	0.893	1.41	0.89	0.818	0.413	0.301	0.408	0.369	0.404	0.879
Calu-6	0.6	0.695	0.556	0.356	–	–	–	–	–	–	–	–	0.929	0.91	0.971	0.922	0.882	–
ChaGo-K-1	0.425	0.438	0.387	0.462	0.266	0.279	0.266	0.258	0.785	0.827	0.715	0.766	0.771	0.726	0.658	0.632	0.912	0.756
EBC-1	0.764	0.698	0.758	0.602	–	–	–	–	–	–	–	–	0.334	0.386	0.338	0.399	0.347	–
EKVX	0.922	0.907	0.889	0.798	0.438	0.435	0.472	0.362	0.64	0.772	0.62	0.705	0.454	0.407	0.446	0.468	0.423	0.705
EMC-BAC-2	0.484	0.562	0.486	0.427	0.44	0.503	0.453	0.422	0.465	0.416	0.409	0.401	0.601	0.49	0.581	0.522	0.502	0.461
EPLC-272H	0.553	0.63	0.57	0.586	0.264	0.314	0.334	0.297	0.404	0.439	0.4	0.708	0.286	0.253	0.314	0.284	0.322	0.664
H3255	0.552	0.542	0.597	0.509	0.592	0.563	0.605	0.577	0.743	0.807	0.788	0.477	0.463	0.414	0.442	0.557	0.461	0.717
HARA	0.557	0.7	0.492	0.574	0.265	0.306	0.255	0.24	0.559	0.511	0.496	0.475	0.506	0.479	0.344	0.311	0.31	0.529
HCC-15	0.796	0.735	0.722	0.669	0.228	0.225	0.233	0.213	0.92	0.806	0.818	0.793	0.697	0.695	0.643	0.732	0.701	0.888
HCC-44	0.963	1.01	1.07	0.993	0.652	0.678	0.667	0.637	1.1	1.26	1.1	1.01	0.542	0.644	0.488	0.734	0.578	1.04
HCC-78	0.911	0.753	0.964	0.755	0.91	0.844	0.941	0.893	0.41	0.391	0.42	0.488	0.156	0.196	0.263	0.192	0.212	0.4
HCC-366	0.423	0.428	0.33	0.404	0.172	0.185	0.161	0.15	0.439	0.303	0.357	0.291	0.128	0.157	0.117	0.181	0.194	0.182
